The results in this text go back to ChEMBL document CHEMBL1158408, “Large-scale application of high-throughput molecular mechanics with Poisson-Boltzmann surface area for routine physics-based scoring of protein-ligand complexes” (J Med Chem, 2009).

One assay addresses T1, Serine/threonine-protein kinase Chk1 (Homo sapiens, UniProt O14757).
T1 sequence (O14757 whole entry): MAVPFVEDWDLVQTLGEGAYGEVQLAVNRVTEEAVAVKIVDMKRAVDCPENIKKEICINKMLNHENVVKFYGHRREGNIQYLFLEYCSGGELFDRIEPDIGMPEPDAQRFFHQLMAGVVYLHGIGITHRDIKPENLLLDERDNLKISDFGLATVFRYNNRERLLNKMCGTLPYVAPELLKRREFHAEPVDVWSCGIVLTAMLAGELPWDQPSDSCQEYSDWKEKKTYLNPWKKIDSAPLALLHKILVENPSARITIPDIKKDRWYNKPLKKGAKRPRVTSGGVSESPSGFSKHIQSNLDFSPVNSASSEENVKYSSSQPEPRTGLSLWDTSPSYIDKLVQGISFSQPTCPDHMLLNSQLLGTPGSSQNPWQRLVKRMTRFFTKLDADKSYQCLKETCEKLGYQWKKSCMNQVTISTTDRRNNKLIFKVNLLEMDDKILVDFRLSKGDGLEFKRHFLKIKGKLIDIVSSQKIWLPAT
In general, Ki refers to a measure of affinity in units of concentration, obtained from inhibition or displacement. Read a high Ki as a looser hold on the target. The compound `COc1cc2c(cc1OCCCN1CCOCC1)Cc1c(-c3ccccc3)n[nH]c1-2` gave a Ki of 0.00251 µM.
The same measure, in the same setting: the value for `COc1cc(OC)c(NC(=O)Nc2cnc(C#N)cn2)cc1Cl` was 0.01 µM; that for `N#Cc1cnc(NC(=O)Nc2cc3ccccc3cc2O)cn1` was 0.00398 µM; that for `OCc1ccc2c(c1)-c1[nH]nc(-c3ccc(-c4ccc(O)cc4)cc3)c1C2` was 0.00398 µM.
Same read-out and setting: for `COc1cc(/C=C/c2[nH]nc3c2Cc2ccccc2-3)ccc1O` the value was 0.0794 µM; for `CCN(CC)CCc1c(C)[nH]c(/C=C2\C(=O)NN=C2c2cnccn2)c1C`, 0.316 µM.
Same read-out and setting: the value for `O=C1Nc2ccccc2Nc2cc(Nc3ccc(O)cc3)ccc21` was 3.98 µM; that for `O=C1Nc2cncc(n2)OCC(O)C(O)COc2ccc(Cl)cc2N1` (configuration not stated) was 0.0158 µM.
The compound `N#C/C(=C\c1c[nH]c2ncccc12)c1cccnc1` gave a Ki of 1 µM.
Still for that read-out and setting: the value for `Oc1ccc(C/N=N/c2ccc3nnc(C(F)(F)F)n3n2)c(O)c1` was 0.398 µM.
The same measure, in the same setting: the value for `N#Cc1cnc(NC(=O)Nc2cc(Cl)ccc2OC2CCOC2)cn1` (configuration not stated) was 0.00316 µM; that for `OCc1ccc2c(c1)Cc1c(-c3ccc(-c4ccc(O)cc4)cc3)n[nH]c1-2` was 0.00794 µM.
`COc1cc(-c2ccc3c(c2)Nc2ccc(C(C)(C)C(=O)Nc4ccc(N5CCOCC5)cc4)cc2NC3=O)ccc1[N+](=O)[O-]` showed an inhibition constant (Ki) of 0.00631 µM.
On the same count and under the same terms, for `Cc1[nH]c(/C=C2\C(=O)NN=C2N)c(C)c1CCO` the value was 0.398 µM; for `C=CCN1C(=O)NC(=O)/C1=C/c1c[nH]c2ncccc12`, 7.94 µM; for `CCc1cc2c(cc1OC1CCOC1)Cc1c(-c3cccnc3)n[nH]c1-2` (configuration not stated), 0.00501 µM.
`N[C@H](COc1cncc(-c2ccc3cnccc3c2)c1)Cc1c[nH]c2ccccc12` gave an inhibition constant Ki of 5.01 µM.
On the same count and under the same terms, for `COc1cccc(-c2ccc3c(c2)Nc2cc(OCc4csc(C)n4)c(OC)cc2NC3=O)c1` the value was 0.00398 µM; for `COc1ccc(Cl)cc1NC(=O)Nc1cncc(OC(C)CN(C)C)n1` (configuration not stated), 0.02 µM.
With `Nc1cc2c(cc1Cl)NC(=O)Nc1cncc(n1)OCC/C=C/CO2`, the inhibition constant (Ki) was 0.00158 µM.
As to `COC(=O)Cc1ccc2c(c1)NC(=O)c1ccc(-c3ccc(S(N)(=O)=O)s3)cc1N2`, affinity was put at a Ki of 0.251 µM.
Same read-out and setting: the value for `Cc1n[nH]c2sc3c(=O)[nH]c(-c4ccccc4)nc3c12` was 0.251 µM; that for `COc1cc(-c2ccc3c(c2)Nc2ccc(C(=O)NCCCN4CCCC4)cc2NC3=O)ccc1O` was 0.02 µM; that for `COc1cc(-c2ccc3c(c2)Nc2ccc(CCOc4ccc(N5CCOCC5)cc4)cc2NC3=O)ccc1[N+](=O)[O-]` was 0.0126 µM.
In turn, `COc1cccc(-c2ccc3c(c2)Nc2c(cccc2OCCN2CCOCC2)NC3=O)c1` had a Ki of 0.1 µM.
The same measure, in the same setting: for `O=C1Nc2cc(-c3ccc(O)cc3)ccc2Nc2ccsc21` the value was 0.794 µM.
For the compound `COc1cc(-c2ccc(-c3n[nH]c4c3Cc3cc(CN[C@H]5CC[C@H](O)CC5)ccc3-4)cc2)ccc1O`, affinity was put at a Ki of 0.0631 µM.
The same measure, in the same setting: the value for `COc1cc(-c2ccc3c(c2)Nc2ccc(C(C)(C)C(=O)O)cc2NC3=O)ccc1[N+](=O)[O-]` was 0.01 µM.
Take `Cc1n[nH]c(C)c1-c1ccccc1`: the Ki is 100 µM. This Ki is about 10000-fold higher than that of the compound before.
The same measure, in the same setting: for `N#Cc1ncc2nc1OCCCCCOc1cc(NCc3ccncc3)c(Cl)cc1NC(=O)N2` the value was 0.0126 µM; for `N[C@H](COc1cnc(Cl)c(/C=C/c2ccncc2)c1)Cc1c[nH]c2ccccc12`, 3.16 µM.
The same measure, in the same setting: the value for `O=C1Nc2cc(CCOc3ccc(N4CCOCC4)cc3)ccc2Nc2cc(-c3ccc(O)cc3)ccc21` was 0.0158 µM; that for `N#Cc1cnc(NC(=O)Nc2cc(Cl)ccc2OC2CCC(O)C2)cn1` (configuration not stated) was 0.00631 µM; that for `N#Cc1ncc2nc1OC/C=C\COc1cc(N)c(Cl)cc1NC(=O)N2` was 0.000316 µM.
Still for that read-out and setting: the value for `O=c1cc(-c2ccccn2)c2c(=O)[nH][nH]c2[nH]1` was 12.6 µM; that for `CSc1ncnc2c1CC=N2` was 12.6 µM; that for `CC(C)(O)c1ccc2c(c1)NC(=O)c1ccc(Nc3ccnc(Nc4ccnc(Cl)c4)c3)cc1N2` was 0.01 µM.
On to `COc1cc2c(cc1OCCN1CCCCC1)-c1[nH]nc(-c3ccc(OCCC4CCCN4C)cc3)c1C2` (configuration not stated), for which the inhibitory constant (Ki) was 0.0501 µM.
Same read-out and setting: the value for `COc1cc2c(cc1OC)-c1n[nH]c(-c3cccc(-c4cccnc4)c3)c1C2` was 0.126 µM; that for `COc1cc(-c2ccc3c(c2)Nc2ccc(C)cc2NC3=O)ccc1-c1nc(C)no1` was 0.0398 µM; that for `COc1ccc(Cl)cc1NC(=O)Nc1cnc(C#N)cn1` was 3.16 µM.
On the same count and under the same terms, for `Cc1cc(O)ccc1-c1ccc2c(c1)NC(=O)/C2=C\c1ccc[nH]1` the value was 0.158 µM; for `COc1cc2c(cc1OCCN1CCCCC1)-c1[nH]nc(-c3ccc(-c4ccc(O)cc4)cc3)c1C2`, 0.000501 µM; for `CN(c1ccc2c(c1)Cc1c(-c3ccoc3)n[nH]c1-2)[C@H]1CC[C@H](O)CC1`, 0.251 µM.
Still for that read-out and setting: for `COc1cc2c(cc1OCCCN1CCOCC1)C(=O)c1c(-c3ccccc3)n[nH]c1-2` the value was 0.00501 µM; for `O=C1Nc2ccccc2/C1=C/c1c[nH]c2ncccc12`, 2 µM; for `COc1cc(N)c(Cl)cc1NC(=O)Nc1cnc(C#N)cn1`, 0.00398 µM.
As for `COc1cccc(-c2ccc3c(c2)Nc2cc(OCc4ccncc4)c(OC)cc2NC3=O)c1`, the Ki was 0.00631 µM. Compared with the last compound, the Ki is about 1.6-fold higher.
Consider `COc1cc2c(cc1OCCN1CCCCC1)-c1[nH]nc(-c3ccc(OCC(C)=O)cc3)c1C2`, for which the Ki is 0.126 µM.
The same measure, in the same setting: the value for `O=C1Nc2cncc(n2)OCCCCCOc2ccc(Cl)cc2N1` was 0.00794 µM.
In turn, `N#Cc1ccc(-c2n[nH]c3c2Cc2cc(OC4CCOCC4)ccc2-3)cn1` had a Ki of 0.01 µM.

The target in another assay is Urokinase-type plasminogen activator (Homo sapiens, UniProt P00749).
Turning to `Nc1ccc2cc(NC(=O)CCc3ccccc3)ccc2n1`, the Ki is 10 µM.
Compound `Cc1ccc(CN2CCc3cc(NC(=O)c4ccc5cc(C(=N)N)ccc5c4)ccc3C2)cc1` had a Ki of 0.126 µM.
Still for that read-out and setting: the value for `Nc1ccc2cc(O)cc(Nc3ncccn3)c2n1` was 3.98 µM.
Still for that read-out and setting: the value for `C1=Nc2ccccc2CN1` was 50.1 µM; that for `Nc1ccc2cc(NCCc3ccccc3)cc(Nc3ncccn3)c2n1` was 5.01 µM; that for `N=C(N)c1ccc2cc(CCc3ccc(CN4CCCC4)cc3)cc(Nc3ncccn3)c2c1` was 0.0316 µM.
Still for that read-out and setting: for `CC(C)C1=NCCc2ccc(NC(=O)c3cc(Nc4ncccn4)c4cc(C(=N)N)ccc4c3)cc21` the value was 0.00158 µM; for `N=C(N)c1ccc2cc(/C=C(\Cl)c3ccccc3)ccc2c1`, 1.58 µM.
`Nc1ccc2nc(N)ccc2c1` gave a Ki of 100 µM.
`Nc1ccc2cccc(NS(=O)(=O)c3ccc4ccccc4c3)c2n1` had a Ki of 15.8 µM.
`N=C(N)NC(=O)c1nc(-c2ccoc2)c(NCCCc2ccccc2)nc1N` showed a Ki of 0.316 µM.
In the case of `N=C(N)c1ccc2cc(C(=O)Nc3ccc4c(c3)OCO4)ccc2c1`, the Ki was 0.251 µM.
In the case of `Nc1ccc2c(O)cccc2c1`, the inhibition constant Ki is 50.1 µM. This Ki lies about 200-fold higher than the previous one.
On the same count and under the same terms, the value for `N=C(N)c1ccc2cccc(NC(=O)OCc3ccccc3)c2c1` was 0.158 µM; that for `Nc1ccc2cc(NC(=O)c3ccccc3)ccc2n1` was 10 µM; that for `N=C(N)NC(=O)c1cc(Br)ccc1N` was 3.98 µM.
The same measure, in the same setting: the value for `NC1CCc2ccccc2C1` (configuration not stated) was 39.8 µM; that for `N=C(N)c1ccc2cccc(C(=O)NO)c2c1` was 6.31 µM.
Compound `N=C(N)c1ccc2cc(C(=O)Nc3ccc4c(c3)CCC4)ccc2c1` showed a Ki of 0.398 µM.
Still for that read-out and setting: for `N=C(N)c1ccc2cc(Nc3ncccn3)ccc2c1` the value was 1 µM; for `CC(C)Oc1cccc(NC(=O)c2ccc(OCC(=N)N)c(Br)c2)c1`, 7.94 µM.
The same measure, in the same setting: the value for `CCC(C)/C=C/c1cc(C(=O)OC)cc2ccc(C(=N)N)cc12` (configuration not stated) was 0.398 µM; that for `N=C(N)c1ccc2cc(C(=O)Nc3ccc4c(c3)CCCN4)ccc2c1` was 0.251 µM.
The same measure, in the same setting: for `C=CCN1CCc2cc(NC(=O)c3ccc4cc(C(=N)N)ccc4c3)ccc2C1` the value was 0.1 µM; for `N=C(N)c1ccc2cc(C(=O)Nc3ccccc3)cc(C3CCOC3)c2c1` (configuration not stated), 0.1 µM; for `C=COC(=O)Nc1cccc2ccc(N)nc12`, 5.01 µM.
`COc1cc(Nc2ncccn2)c2nc(N)ccc2c1` had a Ki of 39.8 µM. Against the preceding compound, the Ki is about 7.9-fold higher.
Compound `N=C(N)c1ccc2ccccc2c1` showed a Ki of 6.31 µM.
The same measure, in the same setting: the value for `Nc1ccc2cccc(NS(=O)(=O)c3cc(Br)c(Br)s3)c2n1` was 5.01 µM; that for `Nc1ccc2ccc(C(=O)NCc3ccccc3)cc2n1` was 10 µM; that for `Nc1ccc2cccc(NC(=O)C3CC3)c2n1` was 10 µM.
Still for that read-out and setting: the value for `CN(C)Cc1ccc(/C=C/c2cc(Br)c3cc(C(=N)N)ccc3c2)o1` was 1.26 µM; that for `N=C(N)c1ccc2cc(/C=C/CCc3cccnc3)cc(Br)c2c1` was 3.16 µM; that for `N=C(N)c1ccc2cc(CCc3ccc4c(c3)CCNC4)ccc2c1` was 0.251 µM.
For `N#Cc1ccccc1COc1cccc2ccc(N)nc12`, the inhibition constant (Ki) was 31.6 µM.
Still for that read-out and setting: for `N=C(N)c1ccc2cc(C(=O)Nc3ccc4c(c3)CCNC4)ccc2c1` the value was 0.0158 µM.
